{
  "source": "ChEMBL document CHEMBL1133429",
  "about": "“Resistance-modifying agents. Part 7: 2,6-disubstituted-4,8-dibenzylaminopyrimido[5,4-d]pyrimidines that inhibit nucleoside transport in the presence of alpha1-acid glycoprotein (AGP)” (2000)",
  "key": {"L1210 [1]": {"system": "L1210", "experiment": "Inhibition of [3H]thymidine uptake into L1210 cells at a concentration of 1 uM", "type": "functional", "details": "Mus musculus"}, "L1210 [2]": {"system": "L1210", "experiment": "Reduction of [3H]thymidine uptake into L1210 cells at a concentration of 1 uM", "type": "functional, Mus musculus"}, "L1210 [3]": {"system": "L1210", "experiment": "Compound was tested for inhibition of [3H]thymidine uptake into L1210 cells at a concentration of 10 uM", "type": "functional", "details": "Mus musculus"}},
  "data": [
    {"smiles": "COc1ccc(CNc2nc(N(CCO)CCO)nc3c(NCc4ccc(OC)c(OC)c4)nc(N(CCO)CCO)nc23)cc1OC", "values": [
      {"measurement": "inhibition at 1 µM", "setting": "L1210 [1]", "value": 71, "unit": "%"},
      {"measurement": "Reduction", "setting": "L1210 [2]", "value": 26, "unit": "%"}
    ]},
    {"smiles": "COc1ccc(CN(C)c2nc(NCC(C)O)nc3c(N(C)Cc4ccc(OC)c(OC)c4)nc(NCC(C)O)nc23)cc1OC", "note": "(stereo not given)", "values": [
      {"measurement": "inhibition at 1 µM", "setting": "L1210 [1]", "value": 73, "unit": "%"},
      {"measurement": "Reduction", "setting": "L1210 [2]", "value": 22, "unit": "%"}
    ]},
    {"smiles": "OCCN(CCO)c1nc(NCc2ccccc2)c2nc(N(CCO)CCO)nc(NCc3ccccc3)c2n1", "values": [
      {"measurement": "inhibition at 1 µM", "setting": "L1210 [1]", "value": 38, "unit": "%"},
      {"measurement": "Reduction", "setting": "L1210 [2]", "value": 45, "unit": "%"}
    ]},
    {"smiles": "COc1ccc(CNc2nc(N(CCO)CCO)nc3c(NCc4ccc(OC)cc4)nc(N(CCO)CCO)nc23)cc1", "values": [
      {"measurement": "inhibition at 1 µM", "setting": "L1210 [1]", "value": 56, "unit": "%"},
      {"measurement": "Reduction", "setting": "L1210 [2]", "value": 18, "unit": "%"}
    ]},
    {"smiles": "COc1ccc(CN(C)c2nc(NCC(C)O)nc3c(N(C)Cc4ccc(OC)cc4)nc(NCC(C)O)nc23)cc1", "note": "(stereo not given)", "values": [
      {"measurement": "inhibition at 1 µM", "setting": "L1210 [1]", "value": 39, "unit": "%"},
      {"measurement": "Reduction", "setting": "L1210 [2]", "value": 86, "unit": "%"}
    ]},
    {"smiles": "COc1ccc(CN(C)c2nc(OCCO)nc3c(N(C)Cc4ccc(OC)cc4)nc(OCCO)nc23)cc1", "values": [
      {"measurement": "inhibition at 1 µM", "setting": "L1210 [1]", "value": 73, "unit": "%"},
      {"measurement": "Reduction", "setting": "L1210 [2]", "value": 77, "unit": "%"}
    ]},
    {"smiles": "COc1ccc(CN(C)c2nc(OCCCO)nc3c(N(C)Cc4ccc(OC)cc4)nc(OCCCO)nc23)cc1", "values": [
      {"measurement": "inhibition at 1 µM", "setting": "L1210 [1]", "value": 69, "unit": "%"},
      {"measurement": "Reduction", "setting": "L1210 [2]", "value": 53, "unit": "%"}
    ]},
    {"smiles": "OCC(O)COc1nc(N2CCCCC2)c2nc(OCC(O)CO)nc(N3CCCCC3)c2n1", "note": "(stereo not given)", "values": [
      {"measurement": "inhibition at 10 µM", "setting": "L1210 [3]", "value": 37, "unit": "%"},
      {"measurement": "Reduction", "setting": "L1210 [2]", "value": 22, "unit": "%"}
    ]},
    {"smiles": "COc1ccc(CNc2nc(OCCCO)nc3c(NCc4ccc(OC)cc4)nc(OCCCO)nc23)cc1", "values": [
      {"measurement": "inhibition at 1 µM", "setting": "L1210 [1]", "value": 66, "unit": "%"},
      {"measurement": "Reduction", "setting": "L1210 [2]", "value": 26, "unit": "%"}
    ]},
    {"smiles": "COc1ccc(CNc2nc(NCC(C)O)nc3c(NCc4ccc(OC)c(OC)c4)nc(NCC(C)O)nc23)cc1OC", "note": "(stereo not given)", "values": [
      {"measurement": "inhibition at 1 µM", "setting": "L1210 [1]", "value": 85, "unit": "%"},
      {"measurement": "Reduction", "setting": "L1210 [2]", "value": 14, "unit": "%"}
    ]},
    {"smiles": "COc1ccc(CNc2nc(NCC(C)O)nc3c(NCc4ccc(OC)cc4)nc(NCC(C)O)nc23)cc1", "note": "(stereo not given)", "values": [
      {"measurement": "inhibition at 1 µM", "setting": "L1210 [1]", "value": 57, "unit": "%"},
      {"measurement": "Reduction", "setting": "L1210 [2]", "value": 45, "unit": "%"}
    ]},
    {"smiles": "OCCN(CCO)c1nc(N2CCCCC2)c2nc(N(CCO)CCO)nc(N3CCCCC3)c2n1", "note": "[DIPYRIDAMOLE]", "values": [
      {"measurement": "inhibition at 1 µM", "setting": "L1210 [1]", "value": 89, "unit": "%"},
      {"measurement": "Reduction", "setting": "L1210 [2]", "value": 96, "unit": "%"}
    ]},
    {"smiles": "COc1ccc(CNc2nc(OCCO)nc3c(NCc4ccc(OC)cc4)nc(OCCO)nc23)cc1", "values": [
      {"measurement": "inhibition at 1 µM", "setting": "L1210 [1]", "value": 40, "unit": "%"},
      {"measurement": "Reduction", "setting": "L1210 [2]", "value": 30, "unit": "%"}
    ]},
    {"smiles": "COc1ccc(CN(C)c2nc(N(CCO)CCO)nc3c(N(C)Cc4ccc(OC)cc4)nc(N(CCO)CCO)nc23)cc1", "values": [
      {"measurement": "inhibition at 1 µM", "setting": "L1210 [1]", "value": 75, "unit": "%"},
      {"measurement": "Reduction", "setting": "L1210 [2]", "value": 47, "unit": "%"}
    ]},
    {"smiles": "COc1ccc(CNc2nc(OCCO)nc3c(NCc4ccc(OC)c(OC)c4)nc(OCCO)nc23)cc1OC", "values": [
      {"measurement": "inhibition at 1 µM", "setting": "L1210 [1]", "value": 57, "unit": "%"},
      {"measurement": "Reduction", "setting": "L1210 [2]", "value": 23, "unit": "%"}
    ]}
  ]
}
